The target in one assay is BTK WT (Homo sapiens (Human), UniProt Q06187). In words: Lantha Screening Kinase Reaction Assay. It counts as biochemical. The following applies: for IC50: TR-FRET LanthaScreen, kinase Invitrogen PV3363, 60 min at 25° C.; for inhibitory activity against enzyme (BTK WT), in words: comment on table 1, G-12 and G-17 compared with G-2. The method, then:
The compound was predissolved in 100% DMSO.10 mM drug stock solution was obtained by dissolution at room temperature and then gradiently diluted with 8 vol % DMSO solution to a final concentration of 10-0.005 μM. 2.5 μl of a solution of substance to be tested and 2.5 μl of kinase (Invitrogen PV3363) diluted with the reaction buffer were added into each well of 384-well plate (Corning 3676), and then the mixture of Fluososcei-PolyGT (Invitrogen PV3610) substrate and ATP (Invitrogen PV3227) diluted with 5 μl of the reaction buffer were added to initiate the reaction. Among the wells, the kinase in the blank well was replaced with a reaction buffer and the kinase well (Enzyme) was not added with any drug. […] The plates were read on a VictorX5 fluorescent plate reader (PerkinElmer) and the light absorption at an excitation wavelength of 340 nm and emission wavelengths of 500 nm and 520 nm was measured.
2. The half-inhibitory concentration IC50 was calculated by fitting with XLFIT 5.0 software (IDBS, UK).
For orientation: Time-resolved FRET reads energy transfer from a long-lived donor to a nearby acceptor.

A further assay addresses wild-type EGFR kinase (Homo sapiens (Human), UniProt P00533). Briefly: Wild type EGFR kinase inhibition test (z-lyte). To be noted: wild-type EGFR kinase Invitrogen PV3872, Tyr04 substrate, read-out: EGFR WT IC50. It counts as biochemical. An excerpt: All the following reagents used in z-lyte test are commercially available from Invitrogen.
The calculation method for the inhibition ratio (referring to the instruction of PV3363, Invitrogen) was as follows: ER=Coumarin Emission (450 nm)/Fluorescein Emission (520 nm) 1. Phosphorylation ratio=(1−((ER×C3520 nm−C3450 nm)/((C1450 nm−C3450 nm)+ER×(C3520 nm−C1520 nm))))×100% 2. Inhibition ratio (IR)=(1-phosphorylation ratio of the test compound)/(phosphorylation ratio of C2))×100% 3.
The half-inhibitory concentration IC50 was calculated by fitting with XLFIT 5.0 software (IDBS, UK).

Another assay concerns the target βBTK Y223 (Ramos cells) (Homo sapiens (Human), UniProt Q06187). In words: HTRF method for detecting intracellular βBTK Y223 phosphorylation. It counts as cell-based. To be noted: 1 hour compound incubation, sodium pervanadate stimulation. The method, then:
The compound was predissolved in 100% DMSO. 10 mM drug stock solution was obtained by dissolution at room temperature and then gradiently diluted with 5 vol % DMSO solution to a final concentration of 3-0.0014 μM. Ramos cells were seeded into a 96-well plate at a density of 4×10^5/well with 45 μl of 1640 medium containing 10% (V/V) FBS per well, and 5 μl of diluted solution of substance to be tested was added to each well. Incubation was performed for 1 hour at 37° C., 5% (V/V) CO2. 10 μl of sodium pervanadate dilution (diluted with 1640 without serum) was added, and 10 μl of serum-free medium was added to the negative control wells. Incubation was performed at 25° C. for 30 minutes on a shaker. 20 μl of lysate (4× lysate: blocked mother liquor is equal to 25:1) was added to each well and incubated for 30 minutes at 25° C. on a shaker. The 96-well plate was shaken on an oscillator at 800 rpm for 1 minute. 16 μl of cell lysate was added to a 384-well plate (Greiner 784075), and 4 μl of pre-mixed antibody solution (Phospho-BTK d2 antibody and Phospho-BTK Cryptate antibody diluted 20-fold with the test solution) was added. Incubation was performed at 25° C. overnight on a shaker. The plate was read on a VictorX5 fluorescent plate reader (PerkinElmer) and the light absorption at an excitation wavelength of 317 nm and emission wavelengths of 500 nm and 520 nm was measured (referring to the instruction of 63ADK017PEH, Cisbio). The half-inhibitory concentration IC50 was calculated by fitting with XLFIT 5.0 software (IDBS, UK).

The values that follow come from patent US11174254B2, “Aniline-substituted 1,2-dihydropyrrol[3,4-C]pyridin/pyrimidin-3-one derivative and use thereof” (SHANGHAI HAIYAN PHARMACEUTICAL TECHNOLOGY CO., LTD., priority 2017, dated 2021).

Each structure is given as a SMILES string. Where only a bound is given, the exact number is not on record here.

Chain of BTK WT (Q06187 whole entry): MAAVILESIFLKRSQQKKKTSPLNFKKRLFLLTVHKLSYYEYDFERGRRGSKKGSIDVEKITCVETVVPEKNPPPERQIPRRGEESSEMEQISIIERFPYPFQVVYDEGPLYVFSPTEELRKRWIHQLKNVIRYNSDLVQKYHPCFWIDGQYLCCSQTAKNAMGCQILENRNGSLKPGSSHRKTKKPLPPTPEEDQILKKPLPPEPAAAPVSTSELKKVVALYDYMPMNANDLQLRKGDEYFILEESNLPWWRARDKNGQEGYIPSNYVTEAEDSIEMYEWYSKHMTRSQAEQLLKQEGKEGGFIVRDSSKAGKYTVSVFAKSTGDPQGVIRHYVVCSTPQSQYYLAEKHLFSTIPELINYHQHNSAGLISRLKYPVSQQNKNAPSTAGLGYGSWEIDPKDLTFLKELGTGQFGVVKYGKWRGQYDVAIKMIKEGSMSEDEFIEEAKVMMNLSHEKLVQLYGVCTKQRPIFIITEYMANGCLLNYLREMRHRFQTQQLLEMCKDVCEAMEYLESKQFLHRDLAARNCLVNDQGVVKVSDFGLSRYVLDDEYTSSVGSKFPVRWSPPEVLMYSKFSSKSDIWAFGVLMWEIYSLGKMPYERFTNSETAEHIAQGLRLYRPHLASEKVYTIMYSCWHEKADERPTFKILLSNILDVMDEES
Chain of βBTK Y223 (Ramos cells) (Q06187 whole entry): as above
Chain of wild-type EGFR kinase (P00533 25-1210): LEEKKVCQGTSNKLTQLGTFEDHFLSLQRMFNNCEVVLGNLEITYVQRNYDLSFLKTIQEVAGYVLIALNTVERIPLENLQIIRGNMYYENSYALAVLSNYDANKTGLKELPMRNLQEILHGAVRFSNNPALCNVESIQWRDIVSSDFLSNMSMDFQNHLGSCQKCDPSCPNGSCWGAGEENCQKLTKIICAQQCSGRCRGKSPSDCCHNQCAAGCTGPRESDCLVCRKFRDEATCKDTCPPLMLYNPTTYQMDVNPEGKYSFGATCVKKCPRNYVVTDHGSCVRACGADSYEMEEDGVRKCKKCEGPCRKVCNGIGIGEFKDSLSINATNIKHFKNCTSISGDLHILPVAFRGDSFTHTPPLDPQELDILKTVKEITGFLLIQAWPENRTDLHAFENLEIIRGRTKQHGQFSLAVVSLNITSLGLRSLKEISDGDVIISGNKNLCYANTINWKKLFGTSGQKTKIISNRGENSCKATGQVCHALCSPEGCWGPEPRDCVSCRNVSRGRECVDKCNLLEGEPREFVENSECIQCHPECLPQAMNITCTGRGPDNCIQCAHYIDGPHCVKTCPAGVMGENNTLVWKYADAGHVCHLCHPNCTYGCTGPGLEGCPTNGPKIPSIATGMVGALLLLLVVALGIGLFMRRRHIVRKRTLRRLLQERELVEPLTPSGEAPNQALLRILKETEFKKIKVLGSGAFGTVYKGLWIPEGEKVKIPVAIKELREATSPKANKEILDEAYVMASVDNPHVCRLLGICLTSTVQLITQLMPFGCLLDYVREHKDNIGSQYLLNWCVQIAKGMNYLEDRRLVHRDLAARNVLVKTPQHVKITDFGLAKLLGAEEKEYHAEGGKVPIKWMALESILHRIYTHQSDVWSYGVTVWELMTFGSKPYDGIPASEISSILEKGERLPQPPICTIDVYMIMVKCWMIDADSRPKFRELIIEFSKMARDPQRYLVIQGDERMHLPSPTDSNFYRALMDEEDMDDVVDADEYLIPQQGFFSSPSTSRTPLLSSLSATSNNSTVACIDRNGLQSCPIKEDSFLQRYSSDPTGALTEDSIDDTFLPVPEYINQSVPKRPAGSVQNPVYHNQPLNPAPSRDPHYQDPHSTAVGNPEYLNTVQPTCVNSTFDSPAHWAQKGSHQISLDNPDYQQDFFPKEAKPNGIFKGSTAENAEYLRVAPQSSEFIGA

Consider `C=CC(=O)Nc1cccc(Nc2nc(Nc3ccc(OCCOC)cc3)c3c(c2F)C(C)NC3=O)c1` (stereo not drawn) [Compound G-1, N-(3-((7-fluoro-4-((4-(2-methoxyethoxy)phenyl)amino)-1-methyl-3-oxo-2,3-dihydro-1H-pyrrolo[3,4-C]pyridin-6-yl)amino)phenyl)acrylamide], for which the IC50 was found to be 141 nM against BTK WT and 9270 nM on wild-type EGFR kinase.
`C=CC(=O)Nc1cccc(Nc2nc3c(c(Nc4ccc(OCCOC)cc4)n2)C(=O)NC3)c1` [Compound G-2, N-(3-(4-(4-(2-methoxyethoxy)phenylamino)-5-oxo-6.7-dihydro-5H-pyrrolo[3,4-d]pyrimidin-2-ylamino)phenyl)acrylamide]: the IC50 stood at 43 nM against βBTK Y223 (Ramos cells), 25 nM on BTK WT and 4690 nM on wild-type EGFR kinase.
Taken in the same sequence, the figures for `C=CC(=O)Nc1cccc(Nc2nc(Nc3ccc(OCCOC)cc3)c3c(c2F)CNC3=O)c1` [Compound G-3, N-(3-(7-fluoro-4-(4-(2-methoxyethoxy)phenylamino)-3-oxo-2,3-dihydro-1H-pyrrolo[3,4-c]pyridin-6-ylamino)phenyl)acrylamide] were 106 nM, 58 nM and greater than 10000 nM.
The matching figures for `C=CC(=O)Nc1cccc(Nc2nc(Nc3ccc(N4CCN(CC(C)O)CC4)cc3)c3c(c2F)CNC3=O)c1` (stereo not drawn) [Compound G-4, N-(3-(7-fluoro-4-(4-(4-(2-hydroxypropyl)piperazin-1-yl)phenylamino)-3-oxo-2,3-dihydro-1H-pyrrolo[3,4c]pyridin-6-ylamino)phenyl)acrylamide]: 6 nM, 10 nM and 3000 nM.
For the compound `C=CC(=O)Nc1cccc(Nc2nc(Nc3ccc(OCCOC)cc3)c3c(c2F)C(C)(C)NC3=O)c1` [Compound G-5, N-(3-(7-fluoro-4-(4-(2-methoxyethoxy)phenylamino)-1,1-dimethyl-3-oxo-2,3-dihydro-1H-pyrrolo[3,4-c]pyridin-6-ylamino)phenyl)acrylamide], the IC50 on BTK WT turned out to be 156 nM.
Turning to `C=CC(=O)Nc1cccc(Nc2nc3c(c(Nc4ccccc4)n2)C(=O)NC3)c1` [Compound G-6, N-(3-(5-oxo-4-(phenylamino)-6,7-dihydro-5H-pyrrolo[3,4-d]pyrimidin-2-ylamino)phenyl)acrylamide], the figures for the IC50 against βBTK Y223 (Ramos cells), against BTK WT and at wild-type EGFR kinase were 20 nM, 14 nM and 3000 nM, respectively.
The matching figures for `C=CC(=O)Nc1cccc(Nc2nc3c(c(Nc4cnn(C5CCOCC5)c4)n2)C(=O)NC3)c1` [Compound G-7, N-(3-(5-oxo-4-(1-(tetrahydro-2H-pyran-4-yl)-1H-pyrazol-4-ylamino)-6,7-dihydro-5H-pyrrolo[3,4d]pyrimidin-2-ylamino)phenyl)acrylamide]: 111 nM, 19 nM and 6990 nM.
The matching figures for `C=CC(=O)Nc1cccc(Nc2nc3c(c(Nc4cnn(C)c4)n2)C(=O)NC3)c1` [Compound G-8, N-(3-(4-(1-methyl-1H-pyrazol-4-ylamino)-5-oxo-6,7-dihydro-5H-pyrrolo[3,4-d]pyrimidin-2-ylamino)phenyl)acrylamide]: 36 nM, 9 nM and 6420 nM.
Taken in the same sequence, the figures for `C=CC(=O)Nc1cccc(Nc2nc3c(c(Nc4cnn(CC(C)(C)O)c4)n2)C(=O)NC3)c1` [Compound G-9, N-(3-(4-(1-(2-hydroxyl-2-methylpropyl)-1H-pyrazol-4-ylamino)-5-oxo-6,7-dihydro-5H-pyrrolo[3,4-d]pyrimidin-2-ylamino)phenyl)acrylamide] were 82 nM, 55 nM and 5030 nM.
Turning to `C=CC(=O)Nc1cccc(Nc2cc3c(c(Nc4ccc(OCCOC)cc4)n2)C(=O)NC3)c1` [Compound G-10, N-(3-(4-(4-(2-methoxyethoxy)phenylamino)-3-oxo-2,3-dihydro-1H-pyrrolo[3,4-c]pyridin-6-ylamino)phenyl)acrylamide], the IC50 was 164 nM against βBTK Y223 (Ramos cells), 68 nM against BTK WT and greater than 10000 nM at wild-type EGFR kinase.
The matching figures for `C=CC(=O)Nc1cccc(Nc2nc3c(c(-c4cnn(C)c4)n2)C(=O)NC3)c1` [Compound G-11, N-(3-(4-(1-methyl-1H-pyrazol-4-yl)-5-oxo-6,7-dihydro-5H-pyrrolo[3,4-d]pyrimidin-2-ylamino)phenyl)acrylamide]: 4 nM, 48 nM and greater than 10000 nM.
As for `C=CC(=O)Nc1cccc(Nc2nc3c(c(Oc4ccc(OCCOC)cc4)n2)C(=O)NC3)c1` [Compound G-12, N-(3-((4-(4-(2-methoxyethoxy)phenoxyl)-5-oxo-6,7-dihydro-5H-pyrrolo[3,4-d]pyrimidin-2-yl)amino)phenyl)acrylamide], at BTK WT, 1350 nM corresponded to half-maximal inhibition (IC50) and the “inhibitory activity against enzyme (BTK WT), in words” value is listed as “significantly reduced”. On wild-type EGFR kinase, the IC50 is 1530 nM.
Take `C=CC(=O)Nc1cccc(Nc2nc3c(c(Nc4cnn(C5CC5)c4)n2)C(=O)NC3)c1` [Compound G-13]: the values for the IC50 against βBTK Y223 (Ramos cells), on BTK WT and at wild-type EGFR kinase were 81 nM, 63 nM and 3080 nM, respectively.
Regarding `C=CC(=O)Nc1cccc(Nc2nc3c(c(Nc4cnn(CCOC)c4)n2)C(=O)NC3)c1` [Compound G-14], the concentration for half-maximal inhibition (IC50) stood at 103 nM against βBTK Y223 (Ramos cells), 59 nM on BTK WT and 2690 nM at wild-type EGFR kinase.
The matching figures for `C=CC(=O)Nc1cccc(Nc2nc3c(c(Nc4ccc(N5CCOCC5)cc4)n2)C(=O)NC3)c1` [Compound G-15]: 36 nM, 52 nM and 4260 nM.
The matching figures for `C=CC(=O)N(CC)c1cccc(Nc2nc3c(c(Nc4ccc(N5CCN(C6COC6)C[C@@H]5C)cc4)n2)C(=O)NC3)c1` [Compound G-16]: 62 nM, 44 nM and 5680 nM.
`C=CC(=O)Nc1cccc(Nc2nc3c(c(N(C)c4ccc(OCCOC)cc4)n2)C(=O)NC3)c1` [Compound G-17]: at BTK WT, the IC50 was greater than 10000 nM and the “inhibitory activity against enzyme (BTK WT), in words” value was “significantly lowered”. For the same compound, the IC50 at wild-type EGFR kinase was greater than 10000 nM.

A word on the IC50: it is the point on the concentration scale where inhibition reaches its midpoint.
